Key:
[1] = target: catalytic domain 2 (CD2) of HDAC6 (Homo sapiens (Human), UniProt Q9UBN7); assay: Cellular target engagement assay - NanoBRET; format: cell-based; details: NanoLuc-HDAC6(CD2) in HEK293T cells, 2 hours, read-out: IC50 (HDAC6(CD2) interaction)
[2] = target: human full-length recombinant HDAC6 (Homo sapiens (Human), UniProt Q9UBN7); assay: HDAC6 enzymatic activity assay (Reaction Biology Corporation, RHKKAc fluorogenic peptide); format: biochemical; details: Reaction Biology Corporation protocol, RHKKAc fluorogenic peptide 10 μM; read-out: HDAC6 biochem
Method: (§1) Dose response testing of HDAC6 and HDAC 1 were run at Reaction Biology Corporation (RBC). Inhibition of HDAC enzymes was performed using N-terminal GST tagged human full-length recombinant HDAC6 (H88-30G, SignalChem) and C-terminal FLAG His tag human full-length recombinant HDAC1 produced in insect cells (KDA-21-365, RBC). Enzyme reactions were run in 50 mM Tris-HCl, pH8.0, 137 mM NaCl, 2.7 mM KCl, and 1 mM MgCl2 with 1 mg/ml BSA, 1% DMSO freshly added. 2× enzyme was delivered in the wells of the reaction plate except for the “no enzyme” control wells. In the latter, buffer was added. Compounds in 100% DMSO were delved into the enzyme mixture by acoustic technology (Echo550). Plates are spun down and compounds were incubation with the enzyme for 10 min at room temperature. 2× Fluorogenic peptide from p53 residues 379-382 (RHKKAc, 10 μM final concentration) was added in all wells to initiate the reaction, followed by 1 h incubation at 30° C. Developer containing Trichostatin A was added to stop the reaction and generate fluorescent color. A kinetic measurement was carried out for 20 min with 5 min interval on the Envision plate reader (Perkin Elmer, Ex/Em=360/460). End point reading i.e., plateau of the development reaction was used for analysis. Data was reported by RBC as percentage enzyme activity. Percentage inhibition was calculated by subtracting percentage enzyme activity from 100. IC50 values were calculated using GraphPad Prism 9 based on the log(inhibitor) vs. response—Variable slope (four parameters) equation.

[3] = target: human full-length recombinant HDAC1 (Homo sapiens (Human), UniProt Q13547); assay: HDAC1 enzymatic activity assay (Reaction Biology Corporation, RHKKAc fluorogenic peptide); format: biochemical; details: Reaction Biology Corporation protocol, RHKKAc fluorogenic peptide 10 μM; read-out: HDAC1 biochem
Method: as §1

catalytic domain 2 (CD2) of HDAC6, sequence (Q9UBN7 482-800): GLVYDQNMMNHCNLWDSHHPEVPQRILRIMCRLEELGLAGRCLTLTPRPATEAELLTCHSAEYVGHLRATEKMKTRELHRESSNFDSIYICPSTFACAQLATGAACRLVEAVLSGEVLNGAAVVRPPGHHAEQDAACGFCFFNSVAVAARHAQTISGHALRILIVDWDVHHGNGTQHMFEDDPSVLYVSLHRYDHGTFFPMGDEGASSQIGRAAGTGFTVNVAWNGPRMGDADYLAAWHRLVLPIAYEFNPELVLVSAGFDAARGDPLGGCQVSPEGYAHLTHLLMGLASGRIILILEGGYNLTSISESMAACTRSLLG
human full-length recombinant HDAC6, sequence (Q9UBN7 whole entry): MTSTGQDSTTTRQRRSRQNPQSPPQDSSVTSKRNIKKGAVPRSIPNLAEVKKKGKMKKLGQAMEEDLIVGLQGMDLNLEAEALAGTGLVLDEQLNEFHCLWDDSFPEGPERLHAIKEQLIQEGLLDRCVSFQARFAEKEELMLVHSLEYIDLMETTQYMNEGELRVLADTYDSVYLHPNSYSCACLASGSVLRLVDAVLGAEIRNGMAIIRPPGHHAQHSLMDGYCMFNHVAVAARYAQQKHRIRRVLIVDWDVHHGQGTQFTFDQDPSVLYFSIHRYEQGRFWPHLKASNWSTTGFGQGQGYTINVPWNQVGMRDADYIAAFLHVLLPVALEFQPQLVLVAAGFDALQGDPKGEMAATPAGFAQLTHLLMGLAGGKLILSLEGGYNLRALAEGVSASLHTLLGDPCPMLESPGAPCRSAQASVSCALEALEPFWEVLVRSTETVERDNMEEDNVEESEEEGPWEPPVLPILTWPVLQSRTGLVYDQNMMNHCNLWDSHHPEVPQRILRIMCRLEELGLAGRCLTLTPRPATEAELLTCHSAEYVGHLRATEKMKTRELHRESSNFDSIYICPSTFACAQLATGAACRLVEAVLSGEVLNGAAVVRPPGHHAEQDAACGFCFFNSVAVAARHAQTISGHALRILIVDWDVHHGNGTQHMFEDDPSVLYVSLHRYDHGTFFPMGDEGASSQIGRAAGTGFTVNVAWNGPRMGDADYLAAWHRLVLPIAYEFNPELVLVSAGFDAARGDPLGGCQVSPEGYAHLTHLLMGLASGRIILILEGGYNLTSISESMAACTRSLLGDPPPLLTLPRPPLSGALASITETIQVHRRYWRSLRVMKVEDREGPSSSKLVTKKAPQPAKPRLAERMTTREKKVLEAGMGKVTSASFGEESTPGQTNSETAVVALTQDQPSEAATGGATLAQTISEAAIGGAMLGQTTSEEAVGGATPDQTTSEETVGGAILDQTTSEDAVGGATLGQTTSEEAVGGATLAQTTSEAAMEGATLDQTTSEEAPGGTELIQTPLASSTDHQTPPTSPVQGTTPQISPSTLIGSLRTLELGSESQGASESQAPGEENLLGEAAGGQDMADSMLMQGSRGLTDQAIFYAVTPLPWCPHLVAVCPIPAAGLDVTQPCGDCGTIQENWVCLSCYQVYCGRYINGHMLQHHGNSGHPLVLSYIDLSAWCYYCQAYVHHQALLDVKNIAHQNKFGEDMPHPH
human full-length recombinant HDAC1, sequence (Q13547 whole entry): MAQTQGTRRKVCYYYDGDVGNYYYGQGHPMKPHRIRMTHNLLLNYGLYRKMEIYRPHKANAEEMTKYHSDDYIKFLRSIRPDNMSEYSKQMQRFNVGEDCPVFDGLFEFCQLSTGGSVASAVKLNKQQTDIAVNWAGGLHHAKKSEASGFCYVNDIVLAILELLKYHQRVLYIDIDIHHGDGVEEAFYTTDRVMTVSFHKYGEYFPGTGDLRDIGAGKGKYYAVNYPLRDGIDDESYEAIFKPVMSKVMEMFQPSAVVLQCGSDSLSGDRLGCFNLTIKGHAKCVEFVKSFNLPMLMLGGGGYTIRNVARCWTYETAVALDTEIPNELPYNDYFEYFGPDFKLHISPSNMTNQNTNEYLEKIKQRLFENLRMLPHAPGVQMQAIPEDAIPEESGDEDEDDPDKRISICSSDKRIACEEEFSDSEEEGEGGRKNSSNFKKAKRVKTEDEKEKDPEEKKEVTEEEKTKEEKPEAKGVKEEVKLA

IC50 [1] [nM]	IC50 [2] [nM]	IC50 [3] [nM]	Structure (SMILES)
≤ 100	≤ 100	> 10000	O=C(CO)NCc1ccc(C(=O)CSc2nc3ccc(C(F)(F)F)nc3o2)s1 [Compound 117, 2-hydroxy-N-((5-(2-((5-(trifluoromethyl)oxazolo[5,4-b]157yrrolid-2-yl)thio)acetyl)thiophen-2-yl)methyl)acetamide]
≤ 100	≤ 100	500 to 1000	O=C(CO)NCc1ccc(C(=O)CSc2nc3ncc(C(F)(F)F)cc3o2)s1 [Compound 118, 2-hydroxy-N-((5-(2-((6-(trifluoromethyl)oxazolo[4,5-b]157yrrolid-2-yl)thio)acetyl)thiophen-2-yl)methyl)acetamide]
≤ 100	≤ 100	> 10000	Cc1nc(SCC(=O)c2ccc(CNC(=O)CO)s2)c2cc(C(F)(F)F)cnc2n1 [Compound 119, 2-hydroxy-N-((5-(2-((2-methyl-6-(trifluoromethyl)pyrido[2,3-d]pyrimidin-4-yl)thio)acetyl)thiophen-2-yl)methyl)acetamide]
≤ 100	≤ 100	> 10000	Cc1nc(SCC(=O)c2ccc(CNC(=O)CO)s2)c2cc(F)cnc2n1 [Compound 124, N-((5-(2-((6-fluoro-2-methylpyrido[2,3-d]pyrimidin-4-yl)thio)acetyl)thiophen-2-yl)methyl)-2-hydroxyacetamide]
≤ 100	≤ 100		Cc1nc(SCC(=O)c2ccc(CNC(=O)CO)s2)c2ncccc2n1 [Compound 153, 2-hydroxy-N-((5-(2-((2-methylpyrido[3,2-d]pyrimidin-4-yl)thio)acetyl)thiophen-2-yl)methyl)acetamide]
≤ 100	≤ 100		COc1cc2c(SCC(=O)c3ccc(CNC(=O)CO)s3)nc(C(F)(F)F)nc2cn1 [Compound 154, 2-hydroxy-N-((5-(2-((6-methoxy-2-(trifluoromethyl)pyrido[3,4-d]pyrimidin-4-yl)thio)acetyl)thiophen-2-yl)methyl)acetamide]
≤ 100	≤ 100		COc1ccc2nc(C)nc(SCC(=O)c3ccc(CNC(=O)CO)s3)c2c1F [Compound 158, N-((5-(2-((5-fluoro-6-methoxy-2-methylquinazolin-4-yl)thio)acetyl)thiophen-2-yl)methyl)-2-hydroxyacetamide]
≤ 100	≤ 100		COc1cc2c(SCC(=O)c3ccc(CN(C)C(=O)CO)s3)nc(C(F)(F)F)nc2cn1 [Compound 159, 2-hydroxy-N-((5-(2-((6-methoxy-2-(trifluoromethyl)pyrido[3,4-d]pyrimidin-4-yl)thio)acetyl)thiophen-2-yl)methyl)-N-methylacetamide]
≤ 100	≤ 100		CCOc1cnc2nc(C)nc(SCC(=O)c3ccc(CNC(=O)CO)s3)c2c1 [Compound 160, N-((5-(2-((6-ethoxy-2-methylpyrido[2,3-d]pyrimidin-4-yl)thio)acetyl)thiophen-2-yl)methyl)-2-hydroxyacetamide]
≤ 100	≤ 100		COc1cnc2nc(C(F)F)nc(SCC(=O)c3ccc(CNC(=O)CO)s3)c2c1 [Compound 164, N-((5-(2-((2-(difluoromethyl)-6-methoxypyrido[2,3-d]pyrimidin-4-yl)thio)acetyl)thiophen-2-yl)methyl)-2-hydroxyacetamide]

More lines, now with the values behind:

Structure (SMILES)	IC50 [1] [nM]	IC50 [2] [nM]	IC50 [3] [nM]
Cn1cc2c(SCC(=O)c3ccc(CNC(=O)CO)s3)nc(C(F)(F)F)nc2n1 [Compound 61, 2-hydroxy-N-((5-(2-((2-methyl-6-(trifluoromethyl)-2H-pyrazolo[3,4-d]pyrimidin-4-yl)thio)acetyl)thiophen-2-yl)methyl)acetamide]	≤ 100	≤ 100	> 10000
Cc1nc(SCC(=O)c2ccc(CNC(=O)CO)s2)c2cccnc2n1 [Compound 64, 2-hydroxy-N-((5-(2-((2-methylpyrido[2,3-d]pyrimidin-4-yl)thio)acetyl)thiophen-2-yl)methyl)acetamide]	≤ 100	≤ 100	> 10000
Cn1cc2c(SCC(=O)c3ccc(CNC(=O)CO)s3)nc(C(F)F)nc2n1 [Compound 69, N-((5-(2-((6-(difluoromethyl)-2-methyl-2H-pyrazolo[3,4-d]pyrimidin-4-yl)thio)acetyl)thiophen-2-yl)methyl)-2-hydroxyacetamide]	100 to 500	≤ 100	
O=C(CO)NCc1ccc(C(=O)CSc2nc3cc(C(F)(F)F)ncc3o2)s1 [Compound 71, 2-hydroxy-N-((5-(2-((6-(trifluoromethyl)oxazolo[5,4-c]156yrrolid-2-yl)thio)acetyl)thiophen-2-yl)methyl)acetamide]	≤ 100	≤ 100	1000 to 10000
O=C(CO)NCc1ccc(C(=O)CSc2nc3nc(C(F)(F)F)ccc3o2)s1 [Compound 72, 2-hydroxy-N-((5-(2-((5-(trifluoromethyl)oxazolo[4,5-b]156yrrolid-2-yl)thio)acetyl)thiophen-2-yl)methyl)acetamide]	≤ 100	≤ 100	500 to 1000
Cc1nc(SCC(=O)c2ccc(CNC(=O)CO)s2)c2cc(Cl)c(F)cc2n1 [Compound 73, N-((5-(2-((6-chloro-7-fluoro-2-methylquinazolin-4-yl)thio)acetyl)thiophen-2-yl)methyl)-2-hydroxyacetamide]	≤ 100	≤ 100	> 10000
Cn1ncc2c(SCC(=O)c3ccc(CNC(=O)CO)s3)nc(C(F)(F)F)nc21 [Compound 74, 2-hydroxy-N-((5-(2-((1-methyl-6-(trifluoromethyl)-1H-pyrazolo[3,4-d]pyrimidin-4-yl)thio)acetyl)thiophen-2-yl)methyl)acetamide]	≤ 100	≤ 100	> 10000
COc1cc2c(SCC(=O)c3ccc(CNC(=O)CO)s3)nc(C)nc2cc1F [Compound 75, N-((5-(2-((7-fluoro-6-methoxy-2-methylquinazolin-4-yl)thio)acetyl)thiophen-2-yl)methyl)-2-hydroxyacetamide]			> 10000
Cc1nc(SCC(=O)c2ccc(CNC(=O)CO)s2)c2cc(C(F)(F)F)ccc2n1 [Compound 76, 2-hydroxy-N-((5-(2-((2-methyl-6-(trifluoromethyl)quinazolin-4-yl)thio)acetyl)thiophen-2-yl)methyl)acetamide]	≤ 100	≤ 100	> 10000
O=C(CO)NCc1ccc(C(=O)CSc2nc(C(F)(F)F)nc3nn(C4CC4)cc23)s1 [Compound 79, N-((5-(2-((2-cyclopropyl-6-(trifluoromethyl)-2H-pyrazolo[3,4-d]pyrimidin-4-yl)thio)acetyl)thiophen-2-yl)methyl)-2-hydroxyacetamide]	≤ 100	≤ 100	> 10000
Cc1nc(SCC(=O)c2ccc(CNC(=O)CO)s2)c2cc(N3CCN(C)CC3)ccc2n1 [Compound 85, 2-hydroxy-N-((5-(2-((2-methyl-6-(4-methylpiperazin-1-yl)quinazolin-4-yl)thio)acetyl)thiophen-2-yl)methyl)acetamide]	≤ 100	≤ 100	> 10000
COc1cc(F)c2nc(C)nc(SCC(=O)c3ccc(CNC(=O)CO)s3)c2c1 [Compound 108, N-((5-(2-((8-fluoro-6-methoxy-2-methylquinazolin-4-yl)thio)acetyl)thiophen-2-yl)methyl)-2-hydroxyacetamide]	100 to 500	≤ 100	
COc1ccc2nc(C)nc(SCC(=O)c3ccc(CN(C)C(=O)CO)s3)c2c1 [Compound 109, 2-hydroxy-N-((5-(2-((6-methoxy-2-methylquinazolin-4-yl)thio)acetyl)thiophen-2-yl)methyl)-N-methylacetamide]	500 to 1000	≤ 100	
O=C(CO)NCc1ccc(C(=O)CSc2nc(C(F)(F)F)nc3ncccc23)s1 [Compound 113, 2-hydroxy-N-((5-(2-((2-(trifluoromethyl)pyrido[2,3-d]pyrimidin-4-yl)thio)acetyl)thiophen-2-yl)methyl)acetamide]	≤ 100	≤ 100	> 10000
O=C(CSc1nc(C(F)(F)F)nc2ncccc12)c1ccc(CNC(=O)C2CC2(F)F)s1 (stereo not drawn) [Compound 114, 2,2-difluoro-N-((5-(2-((2-(trifluoromethyl)pyrido[2,3-d]pyrimidin-4-yl)thio)acetyl)thiophen-2-yl)methyl)cyclopropane-1-carboxamide]	≤ 100	≤ 100	> 10000
CN(Cc1ccc(C(=O)CSc2nc(C(F)(F)F)nc3nn(C)cc23)s1)C(=O)CO [Compound 116, 2-hydroxy-N-methyl-N-((5-(2-((2-methyl-6-(trifluoromethyl)-2H-pyrazolo[3,4-d]pyrimidin-4-yl)thio)acetyl)thiophen-2-yl)methyl)acetamide]	100 to 500	≤ 100	

Source: patent publication US20250051319A1 (AUGUSTINE THERAPEUTICS, priority 2021, published 2025)
